Measurements from US8101550B2, “Anthranilic acid diamide derivative with hetero-aromatic and hetero-cyclic substituents” (Bayer Cropscience AG, priority 2006, dated 2012).
Like-named read-outs stand apart in the source and are kept apart here.

Assay: log P determination by HPLC on reverse-phase column (EEC Directive 79/831 Annex V.A8)
Format: physicochemical
Conditions: for chromatographic logP: reverse-phase C18 HPLC column, read-out: logP
In short: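 Log P was derived from retention times by linear interpolation between successive unbranched alkan-2-one standards (C3–C16). The standards and samples ran on a C18 reverse-phase column at 43 °C with a 10→95% acetonitrile gradient in 0.1% formic acid (pH 2.7). The method follows EEC Directive 79/831 Annex V.A8.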

[1] = HPLC, reverse-phase column (C 18), 43° C., acidic range pH 2.7

| SMILES | logP | other results |
| --- | --- | --- |
| Cc1cc(I)cc(C(=O)N(C)C)c1NC(=O)c1cc(Cn2nc(C(F)(F)F)cc2C(F)(F)F)nn1-c1ncccc1Cl [I-1-256] | 3.84 | – |
| CNC(=O)c1cc(Cl)cc(Cl)c1NC(=O)c1cc(Cn2cnc(C(F)(F)C(F)(F)F)n2)nn1-c1ncccc1Cl [I-1-342] | 2.15 | – |
| CC(C)NC(=O)c1cc2ccccc2c(Cl)c1NC(=O)c1cc(Cn2nc(C(F)(F)F)cc2C(F)(F)F)nn1-c1ncccc1Cl [I-3-1] | – | logP [1]: 4.08 |
| Cc1cc(C#N)cc(C(=O)NC(C)CS(C)(=O)=O)c1NC(=O)c1cc(Cn2cc(Cl)c(C(F)(F)C(F)(F)F)n2)nn1-c1ncccc1Cl (stereo not drawn) [I-1-210] | 3.34 | – |
| Cc1cc(F)cc(C(=O)NCc2ccco2)c1NC(=O)c1cc(Cn2cc(Cl)c(C(F)(F)C(F)(F)F)n2)nn1-c1ncccc1Cl [I-1-196] | 3.90 | – |
| Cc1cc(Cl)cc(C(=O)NC2CC2)c1NC(=O)c1cc(Cn2nc(C)c(Br)c2C)nn1-c1ncccc1Cl [I-1-271] | 3.17 | – |
| CNC(=O)c1cc(C#N)cc(C)c1NC(=O)c1cc(Cn2nc(C(F)(F)F)nc2C(F)(F)F)nn1-c1ncccc1Cl [I-1-176] | 3.11 | – |
| CSCC(C)(C)NC(=O)c1cc(Br)cc(C)c1NC(=O)c1cc(Cn2cc(Br)c(C(F)(F)F)n2)nn1-c1ncccc1Cl [I-1-98] | – | logP (HPLC on reverse-phase column): 4.47 |
| CNC(=O)c1cc(Cl)cc(C)c1NC(=O)c1cc(Cn2nnn(-c3cc(C(F)(F)F)cc(C(F)(F)F)c3)c2=O)nn1-c1ncccc1Cl [I-1-90] | – | logP (HPLC on reverse-phase column): 4.08 |
| Cc1cc(Cl)cc(C(=O)NC(C2CC2)C2CC2)c1NC(=O)c1cc(Cn2nc(C(F)(F)F)cc2C(F)(F)F)nn1-c1ncc(C(F)(F)F)cc1Cl [I-2-14] | – | logP [1]: 5.27 |
| O=C(NC1CC1)c1cc(Cl)cc(Cl)c1NC(=O)c1cc(Cn2nc(C(F)F)c([N+](=O)[O-])c2C(F)F)nn1-c1ncccc1Cl [I-1-261] | 3.08 | – |
| Cc1cc(Cl)cc(C(N)=O)c1NC(=O)c1cc(Cn2nnc(-c3ccc(C(F)(F)F)cc3)n2)nn1-c1ncccc1Cl [I-1-106] | – | logP (HPLC on reverse-phase column): 3.46 |
| CNC(=O)c1cc(Cl)cc(C)c1NC(=O)c1cc(Cn2nc(C(F)(F)C(F)(F)F)nc2C(F)(F)F)nn1-c1ncccc1Cl [I-1-86] | – | logP (HPLC on reverse-phase column): 3.78 |
| CC(C)NC(=O)c1cc(Cl)cc(Cl)c1NC(=O)c1cc(Cn2nc(C(F)(F)F)nc2C(F)(F)F)nn1-c1ncccc1Cl [I-1-291] | 3.76 | – |
| CSc1ncn(Cc2cc(C(=O)Nc3c(C)cc(Cl)cc3C(=O)NC3CC3)n(-c3ncccc3Cl)n2)n1 [I-1-263] | 2.13 | – |
| CNC(=O)c1cc(Cl)cc(C)c1NC(=O)c1cc(Cn2cnc(-c3ccc(Cl)cc3)n2)nn1-c1ncccc1Cl [I-1-153] | 3.07 | – |
| CC(C)NC(=O)c1cc(Cl)cc(Cl)c1NC(=O)c1cc(Cc2ccoc2)nn1-c1ncccc1Cl [I-1-301] | 2.60 | – |
| Cc1cc(Cl)cc(C(=O)NC2CC2)c1NC(=O)c1cc(Cn2cnc(C(F)(F)C(F)(F)F)n2)nn1-c1ncccc1Cl [I-1-331] | 2.78 | – |
| Cc1cc(I)cc(C(=O)NC(C)C)c1NC(=O)c1cc(Cn2nc(C(F)F)c([N+](=O)[O-])c2C(F)F)nn1-c1ncccc1Cl [I-1-267] | 3.67 | – |
| O=C(NC1CC1)c1cc(Cl)cc(Cl)c1NC(=O)c1cc(Cn2nc(C(F)(F)F)cc2C(F)(F)F)nn1-c1ncccc1Cl [I-1-300] | 3.19 | – |

| SMILES | logP | other results |
| --- | --- | --- |
| CC(C)NC(=O)c1cc(Cl)cc(Cl)c1NC(=O)c1cc(Cn2cnc(C(F)(F)C(F)(F)F)n2)nn1-c1ncccc1Cl [I-1-327] | 2.97 | – |
| Cc1cc(Cl)cc(C(=O)NC(C)(C)C[S+](C)[O-])c1NC(=O)c1cc(Cn2cc(Br)c(C(F)(F)F)n2)nn1-c1ncccc1Cl (stereo not drawn) [I-1-136] | – | logP (HPLC on reverse-phase column): 3.23 |
| CNC(=O)c1cc(Cl)cc(C)c1NC(=O)c1cc(Cn2nc(C(F)(F)F)cc2C(F)(F)F)nn1-c1ncc(C(F)(F)F)cc1Cl [I-2-22] | – | logP [1]: 3.53 |
| CSCC(C)NC(=O)c1cc(Br)cc(C)c1NC(=O)c1cc(Cn2cc(Br)c(C(F)(F)F)n2)nn1-c1ncccc1Cl (stereo not drawn) [I-1-99] | – | logP (HPLC on reverse-phase column): 4.10 |
| O=C(NC1CC1)c1cc(Cl)cc(Cl)c1NC(=O)c1cc(Cn2cnc(C(F)(F)C(F)(F)F)n2)nn1-c1ncccc1Cl [I-1-335] | 2.69 | – |
| CC(C)NC(=O)c1cc(Cl)cc(Cl)c1NC(=O)c1cc(Cn2cc(C(F)(F)C(F)(F)F)c(C(F)(F)C(F)(F)F)n2)nn1-c1ncccc1Cl [I-1-294] | 4.00 | – |
| Cc1cc(Cl)cc(C(=O)NCC#N)c1NC(=O)c1cc(Cn2nc(C(F)(F)F)nc2C(F)(F)F)nn1-c1ncccc1Cl [I-1-49] | – | logP (HPLC on reverse-phase column): 3.97 |
| Cc1cc(I)cc(C(=O)NC(C)C2CC2)c1NC(=O)c1cc(Cn2nc(C(F)(F)F)cc2C(F)(F)F)nn1-c1ncccc1Cl (stereo not drawn) [I-1-233] | 4.55 | – |
| CSCC(C)NC(=O)c1cc(C#N)cc(C)c1NC(=O)c1cc(Cn2cc(Cl)c(C(F)(F)C(F)(F)F)n2)nn1-c1ncccc1Cl (stereo not drawn) [I-1-209] | 4.05 | – |
| Cc1cc(Cl)cc(C(=O)NC(C)C)c1NC(=O)c1cc(Cn2nnn(-c3ccc(C(F)(F)F)cc3)c2=O)nn1-c1ncccc1Cl [I-1-89] | – | logP (HPLC on reverse-phase column): 3.96 |
| CNC(=O)c1cc(Cl)cc(Cl)c1NC(=O)c1cc(Cn2ccc(C(F)(F)F)n2)nn1-c1ncccc1Cl [I-1-312] | 2.37 | – |
| Cc1cc(Cl)cc(C(=O)NCC#N)c1NC(=O)c1cc(Cn2nnn(-c3cc(C(F)(F)F)cc(C(F)(F)F)c3)c2=O)nn1-c1ncccc1Cl [I-1-95] | – | logP (HPLC on reverse-phase column): 4.01 |
| Cc1cc(I)cc(C(=O)NC(C2CC2)C2CC2)c1NC(=O)c1cc(Cn2nc(C(F)(F)F)cc2C(F)(F)F)nn1-c1ncccc1Cl [I-1-236] | 4.80 | – |
| CNC(=O)c1cc(Cl)cc(C)c1NC(=O)c1cc(Cn2nnc(-c3ccc(Cl)nc3)n2)nn1-c1ncccc1Cl [I-1-148] | – | logP (HPLC on reverse-phase column): 2.91 |
| Cc1cc(C#N)cc(C(=O)NC(C)C)c1NC(=O)c1cc(Cn2ccc(C(F)(F)F)n2)nn1-c1ncccc1Cl [I-1-182] | 2.96 | – |
| Cc1cc(Cl)cc(C(=O)NC(C)C)c1NC(=O)c1cc(Cn2cc(Br)c(C(F)(F)F)n2)nn1-c1ncccc1Cl [I-1-67] | – | logP (HPLC on reverse-phase column): 3.78 |
| Cc1cc(Cl)cc(C(=O)NC(C)C)c1NC(=O)c1cc(Cn2nc(C(F)(F)F)n(-c3ccccc3)c2=O)nn1-c1ncccc1Cl [I-1-119] | – | logP (HPLC on reverse-phase column): 3.54 |
| CC(C)NC(=O)c1cc(Cl)cc(Cl)c1NC(=O)c1cc(Cn2nc(C(F)(F)F)cc2C(F)(F)F)nn1-c1ncccc1Cl [I-1-305] | 3.40 | – |
| N#CCNC(=O)c1cc(Cl)cc(Cl)c1NC(=O)c1cc(Cn2cnc(C(F)(F)C(F)(F)F)n2)nn1-c1ncccc1Cl [I-1-337] | 2.56 | – |
| CNC(=O)c1cc(Cl)cc(Cl)c1NC(=O)c1cc(Cn2nc(C(F)(F)F)cc2C(F)(F)F)nn1-c1ncc(C(F)(F)F)cc1Cl [I-2-23] | – | logP [1]: 3.54 |

| SMILES | logP | other results |
| --- | --- | --- |
| Cc1cc(F)cc(C(=O)NC(C)C[S+](C)[O-])c1NC(=O)c1cc(Cn2cc(Cl)c(C(F)(F)C(F)(F)F)n2)nn1-c1ncccc1Cl (stereo not drawn) [I-1-216] | 3.03 | – |
| Cc1cc(I)cc(C(=O)NC2CC2)c1NC(=O)c1cc(Cn2nc(C(F)F)c([N+](=O)[O-])c2C(F)F)nn1-c1ncccc1Cl [I-1-268] | 3.44 | – |
| CNC(=O)c1cc(I)cc(C)c1NC(=O)c1cc(Cn2cc(C(F)(F)C(F)(F)F)c(C(F)(F)C(F)(F)F)n2)nn1-c1ncccc1Cl [I-1-239] | 4.51 | – |
| CCNC(=O)c1cc(I)cc(C)c1NC(=O)c1cc(Cn2nc(C(F)(F)F)cc2C(F)(F)F)nn1-c1ncccc1Cl [I-1-228] | 4.06 | – |
| COC(=O)c1cc(C(=O)OC)n(-c2ncccc2Cl)n1 [Example 7, Dimethyl 1-(3-chloropyridin-2-yl)-1H-pyrazole-3,5-dicarboxylate] | – | chromatographic logP [1]: 1.97 |
| CNC(=O)c1cc(Br)cc(C)c1NC(=O)c1cc(Cn2cc(Cl)c(C(F)(F)C(F)(F)F)n2)nn1-c1ncccc1Cl [I-1-70] | – | logP (HPLC on reverse-phase column): 3.94 |
| Cc1cc(C#N)cc(C(=O)NCC#N)c1NC(=O)c1cc(Cn2cnc(C(F)(F)C(F)(F)F)n2)nn1-c1ncccc1Cl [I-1-351] | 1.96 | – |
| CNC(=O)c1cc(F)cc(C)c1NC(=O)c1cc(Cn2nc(C(F)(F)F)nc2C(F)(F)F)nn1-c1ncccc1Cl [I-1-219] | 3.12 | – |
| C[C@@H](C[S+](C)[O-])NC(=O)c1cc(Cl)cc(Cl)c1NC(=O)c1cc(Cn2cc(C(F)(F)C(F)(F)F)c(C(F)(F)C(F)(F)F)n2)nn1-c1ncccc1Cl (stereo partly drawn) [I-1-325] | 3.54 | – |
| Cc1cc(Cl)cc(C(=O)NC(C)C)c1NC(=O)c1cc(Cn2nnc(-c3ccc(Cl)nc3)n2)nn1-c1ncccc1Cl [I-1-149] | – | logP (HPLC on reverse-phase column): 3.41 |
| CNC(=O)c1cc(I)cc(C)c1NC(=O)c1cc(Cn2nc(C(F)(F)F)cc2C(F)(F)F)nn1-c1ncccc1Cl [I-1-227] | 3.87 | – |
| Cc1cc(Cl)cc(C(=O)NC(C)(C)C)c1NC(=O)c1cc(Cn2nc(C(F)(F)F)cc2C(F)(F)F)nn1-c1ncc(C(F)(F)F)cc1Cl [I-2-16] | – | logP [1]: 5.12 |
| Cc1cc(I)cc(C(N)=O)c1NC(=O)c1cc(Cn2nc(C(F)(F)F)nc2C(F)(F)F)nn1-c1ncccc1Cl [I-1-272] | 3.38 | – |
| CNC(=O)c1cc(F)cc(C)c1NC(=O)c1cc(Cn2nc(C(F)(F)F)cc2C(F)(F)F)nn1-c1ncccc1Cl [I-1-221] | 3.32 | – |
| Cc1cc(C#N)cc(C(=O)NC(C)C)c1NC(=O)c1cc(Cn2nc(C(F)(F)F)nc2C(F)(F)F)nn1-c1ncccc1Cl [I-1-177] | 3.53 | – |
| CCCNC(=O)c1cc(I)cc(C)c1NC(=O)c1cc(Cn2nc(C(F)(F)F)cc2C(F)(F)F)nn1-c1ncccc1Cl [I-1-229] | 4.33 | – |
| CNC(=O)c1cc(Cl)cc(C)c1NC(=O)c1cc(Cn2nnc(-c3ccc(Br)cc3)n2)nn1-c1ncccc1Cl [I-1-150] | – | logP (HPLC on reverse-phase column): 3.70 |
| Cc1cc(Br)cc(C(=O)NCC#N)c1NC(=O)c1cc(Cn2nc(C(F)(F)F)cc2C(F)(F)F)nn1-c1ncccc1Cl [I-1-59] | – | logP (HPLC on reverse-phase column): 3.65 |
| O=C(O)c1cc(Cn2nc(C(F)(F)F)cc2C(F)(F)F)nn1-c1ncccc1Cl [Example 3, 5-(3,5-Bistrifluoromethylpyrazol-1-ylmethyl)-2-(3-chloropyridin-2-yl)-2H-pyrazole-3-carboxylic acid] | – | chromatographic logP [1]: 2.86 |
| CCNC(=O)c1cc(I)cc(C)c1NC(=O)c1cc(Cn2nc(C(F)(F)F)nc2C(F)(F)F)nn1-c1ncccc1Cl [I-1-283] | 3.89 | – |
